Reference: patent US7732457B2, “Amino-pyridines as inhibitors of β-secretase” (Wyeth LLC, priority 2005, dated 2010)
Counter-ions that a name gives are not always drawn.

target: human BACE1 (Homo sapiens, UniProt P56817); experiment: BACE-1 fluorescent kinetic assay (cleavage of peptide substrate WABC-6); assay type: biochemical; details: 10 nM enzyme, 25 μM substrate WABC-6, Na-Acetate pH 4.5, room temperature
Experimental: Evaluation of BACE-1 Binding Affinity of Test Compounds
Fluorescent Kinetic Assay
Dilution and mixing steps: total reaction volume: 100 μL
100 μM substrate dilution in 1×PBS was prepared, and
Fluorescence Readings: Readings at λex 320 nm and λem 420 nm are taken every 40 sec for 30 min at room temperature and the linear slope for substrate cleavage rate (vi) determined.

Chain of human BACE1 (P56817 46-501): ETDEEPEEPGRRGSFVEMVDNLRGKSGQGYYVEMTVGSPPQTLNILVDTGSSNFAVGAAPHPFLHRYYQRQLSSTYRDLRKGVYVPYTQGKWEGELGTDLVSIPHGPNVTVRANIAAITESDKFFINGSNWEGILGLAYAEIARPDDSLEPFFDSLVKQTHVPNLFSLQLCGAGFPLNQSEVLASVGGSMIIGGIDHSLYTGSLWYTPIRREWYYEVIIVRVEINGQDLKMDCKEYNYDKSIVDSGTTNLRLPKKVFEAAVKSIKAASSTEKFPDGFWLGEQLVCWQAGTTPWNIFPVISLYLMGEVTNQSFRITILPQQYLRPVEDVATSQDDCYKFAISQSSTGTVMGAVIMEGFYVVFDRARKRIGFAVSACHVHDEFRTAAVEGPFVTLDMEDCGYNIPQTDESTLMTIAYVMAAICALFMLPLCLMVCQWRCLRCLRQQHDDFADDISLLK

Row | Compound | IC50 | BACE 1 IC50 μM
1 | Nc1cccc(Cn2c(-c3ccc(-c4cncnc4)cc3)ccc2-c2ccccc2Cl)n1 [Example 29, 6-[2-(2-Chloro-phenyl)-5-(4-pyrimidin-5-yl-phenyl)-pyrrol-1-ylmethyl]-pyridin-2-ylamine] | 110 to 1000 nM | 
2 | CCNC(=O)c1ccc(-c2ccc(-c3ccc(F)cc3)n2Cc2cccc(N)n2)cc1 [Example 61, 4-[1-[(6-aminopyridin-2-yl)methyl]-5-(4-fluorophenyl)-1H-pyrrol-2-yl]-N-ethylbenzamide] | 1100 to 5000 nM | 
3 | CCCCCCOc1ccc(-c2ccc(-c3ccccc3Cl)n2Cc2cccc(N)n2)cc1.Cl [Example 17, 6-[2-(2-Chloro-phenyl)-5-(4-hexyloxy-phenyl)-pyrrol-1-ylmethyl]-pyridin-2-ylamine hydrochloride] |  | D (D = >5.0 μM-0.10 = μM)
4 | CCOC(=O)c1ccc(-c2ccc(-c3ccc(F)cc3)n2Cc2cccc(N)n2)cc1 [Example 57, Ethyl 4-[1-[(6-aminopyridin-2-yl)methyl]-5-(4-fluorophenyl)-1H-pyrrol-2-yl]benzoate] |  | D (D = >5.0 μM-0.10 = μM)
5 | CCCOc1ccc(-c2ccc(-c3ccccc3Cl)n2Cc2ccc(OCCO)c(N)n2)cc1 [Example 54, 2-[(2-amino-6-{[2-(2-chlorophenyl)-5-(4-propoxyphenyl)-1H-pyrrol-1-yl]methyl}pyridine-3-yl)oxy]ethanol] | 110 to 1000 nM | 
6 | Nc1cccc(Cn2c(-c3ccc(-c4cccnc4)cc3)ccc2-c2ccccc2Cl)n1 [Example 28] | 110 to 1000 nM | 
7 | CCCCCOc1ccc(-c2ccc(-c3ccccc3Cl)n2Cc2ccc(OC)c(NCCCO)n2)cc1 [Example 41, 3-{6-[2-(2-Chloro-phenyl)-5-(4-pentyloxy-phenyl)-pyrrol-1-ylmethyl]-3-methoxy-pyridin-2-ylamino}-propan-1-ol hydrochloride] |  | D (D = >5.0 μM-0.10 = μM)
8 | CCCCCNc1ccc(-c2ccc(-c3ccccc3Cl)n2Cc2cccc(N)n2)cc1 [Example 53, 6-[2-(2-Chloro-phenyl)-5-(4-pentylamino-phenyl)-pyrrol-1-ylmethyl]-pyridin-2-ylamine hydrochloride] | 1100 to 5000 nM | 
9 | CCCCCOc1ccc(-c2ccc(-c3ccccc3Cl)n2Cc2ccc(N)c(N)n2)cc1 [Example 42B, 6-[2-(2-Chlorophenyl)-5-(4-pentyloxyphenyl)pyrrol-1-ylmethyl]pyridine-2,3-diamine hydrochloride] |  | D (D = >5.0 μM-0.10 = μM)
10 | CCCCCOc1ccc(-c2ccc(-c3ccccc3Cl)n2Cc2ccc(O)c(N)n2)cc1 [Example 42A, 2-Amino-6-[2-(2-chlorophenyl)-5-(4-pentyloxyphenyl)pyrrol-1-ylmethyl]pyridin-3-ol hydrochloride] |  | D (D = >5.0 μM-0.10 = μM)
11 | CC(=O)c1ccc(Oc2ccc(-c3ccc(-c4ccccc4Cl)n3Cc3cccc(N)n3)cc2)cc1 [Example 37, 1-(4-{4-[1-(6-Aminopyridin-2-ylmethyl)-5-(2-chlorophenyl)-1H-pyrrol-2-yl]phenoxy}-phenyl)ethanone hydrochloride] | 110 to 1000 nM | 
12 | CCCCCOc1ccc(-c2ccc(-c3ccccc3Cl)n2Cc2ccc(OC)c(N)n2)cc1 [Example 40, 6-[2-(2-Chlorophenyl)-5-(4-pentyloxyphenyl)-pyrrol-1-ylmethyl]-3-methoxypyridin-2-ylamine hydrochloride] |  | D (D = >5.0 μM-0.10 = μM)
13 | CCCCCOc1ccc(-c2ccc(-c3ccccc3Cl)n2Cc2ccc(OCCCO)c(N)n2)cc1 [Example 43A, 3-{(2-Amino-6-[2-(2-chlorophenyl)-5-(4-pentyloxyphenyl)pyrrol-1-ylmethyl]pyridin-3-yloxy}propan-1-ol hydrochloride] |  | D (D = >5.0 μM-0.10 = μM)
14 | Nc1cccc(Cn2c(-c3ccc(-c4ccccc4)cc3)ccc2-c2ccccc2Cl)n1 [Example 27, 6-[2-Biphenyl-4-yl-5-(2-chlorophenyl)pyrrol-1-ylmethyl]pyridin-2-ylamine] |  | D (D = >5.0 μM-0.10 = μM)
15 | Nc1cccc(Cn2c(-c3ccc(NC(=O)c4ccccc4)cc3)ccc2-c2ccccc2Cl)n1 [Example 3, N-{4-[1-(6-Amino-pyridin-2-ylmethyl)-5-(2-chloro-phenyl)-1H-pyrrol-2-yl]-phenyl}-benzamide] |  | D (D = >5.0 μM-0.10 = μM)
16 | Nc1cccc(Cn2c(-c3ccc(Oc4ncccn4)cc3)ccc2-c2ccccc2Cl)n1 [Example 31, 6-{2-(2-Chloro-phenyl)-5-[4-(Pyrimidin-2-yloxy)-phenyl]-pyrrol-1-ylmethyl}-pyridin-2-ylamine hydrochloride] | 1100 to 5000 nM | 
17 | Nc1cccc(Cn2c(-c3ccc(Oc4ccc(Br)cc4)cc3)ccc2-c2ccccc2Cl)n1 [Example 38, 6-[2-[4-(4-Bromophenoxy)phenyl]-5-(2-chlorophenyl)pyrrol-1-ylmethyl]pyridin-2-ylamine hydrochloride] |  | D (D = >5.0 μM-0.10 = μM)
18 | CCCCCOc1ccc(-c2ccc(-c3ccccc3Cl)n2Cc2ccc(OCCCC#N)c(N)n2)cc1 [Example 43B, 4-{2-Amino-6-[2-(2-chlorophenyl)-5-(4-pentyloxyphenyl)pyrrol-1-ylmethyl]-pyridin-3-yloxy}butyronitrile hydrochloride] |  | D (D = >5.0 μM-0.10 = μM)
19 | Nc1cccc(Cn2c(-c3ccc(Oc4nccs4)cc3)ccc2-c2ccccc2Cl)n1 [Example 32, 6-{2-(2-Chloro-phenyl)-5-[4-(thiazol-2-yloxy)-phenyl]-pyrrol-1-ylmethyl}-pyridin-2-ylamine hydrochloride] | 110 to 1000 nM | 

system: not given; experiment: not given; details: not given

Row | Compound | melting point
20 | CCNC(=O)c1ccc(-c2ccc(-c3ccc(F)cc3)n2Cc2cccc(N)n2)cc1 [Example 61, 4-[1-[(6-aminopyridin-2-yl)methyl]-5-(4-fluorophenyl)-1H-pyrrol-2-yl]-N-ethylbenzamide] | 184 to 185 °C
21 | Nc1cccc(Cn2c(-c3ccc(Oc4ccc(Br)cc4)cc3)ccc2-c2ccccc2Cl)n1 (as salt: hydrochloride) [Example 38, 6-[2-[4-(4-Bromophenoxy)phenyl]-5-(2-chlorophenyl)pyrrol-1-ylmethyl]pyridin-2-ylamine hydrochloride] | 130 to 138 °C
22 | Nc1cccc(Cn2c(-c3ccc(Oc4nccs4)cc3)ccc2-c2ccccc2Cl)n1 (as salt: hydrochloride) [Example 32, 6-{2-(2-Chloro-phenyl)-5-[4-(thiazol-2-yloxy)-phenyl]-pyrrol-1-ylmethyl}-pyridin-2-ylamine hydrochloride] | 126 to 130 °C
23 | CCOC(=O)c1ccc(-c2ccc(-c3ccc(F)cc3)n2Cc2cccc(N)n2)cc1 [Example 57, Ethyl 4-[1-[(6-aminopyridin-2-yl)methyl]-5-(4-fluorophenyl)-1H-pyrrol-2-yl]benzoate] | 172 to 173 °C
24 | Nc1cccc(Cn2c(-c3ccc(Oc4ncccn4)cc3)ccc2-c2ccccc2Cl)n1 (as salt: hydrochloride) [Example 31, 6-{2-(2-Chloro-phenyl)-5-[4-(Pyrimidin-2-yloxy)-phenyl]-pyrrol-1-ylmethyl}-pyridin-2-ylamine hydrochloride] | 135 to 140 °C
25 | CCCOc1ccc(-c2ccc(-c3ccccc3Cl)n2Cc2ccc(OCCO)c(N)n2)cc1 [Example 54, 2-[(2-amino-6-{[2-(2-chlorophenyl)-5-(4-propoxyphenyl)-1H-pyrrol-1-yl]methyl}pyridine-3-yl)oxy]ethanol] | 89 to 92 °C
26 | Nc1cccc(Cn2c(-c3ccc(-c4cccnc4)cc3)ccc2-c2ccccc2Cl)n1 [Example 28] | 163 to 166 °C
27 | CCCCCNc1ccc(-c2ccc(-c3ccccc3Cl)n2Cc2cccc(N)n2)cc1 (as salt: hydrochloride) [Example 53, 6-[2-(2-Chloro-phenyl)-5-(4-pentylamino-phenyl)-pyrrol-1-ylmethyl]-pyridin-2-ylamine hydrochloride] | 145 to 147 °C
28 | CCCCCOc1ccc(-c2ccc(-c3ccccc3Cl)n2Cc2ccc(OC)c(NCCCO)n2)cc1 (as salt: hydrochloride) [Example 41, 3-{6-[2-(2-Chloro-phenyl)-5-(4-pentyloxy-phenyl)-pyrrol-1-ylmethyl]-3-methoxy-pyridin-2-ylamino}-propan-1-ol hydrochloride] | 86 to 88 °C
